Data from patent US11179397B2, “Imidazopyrimidine derivatives” (Gilead Sciences, Inc., priority 2018, dated 2021).

Legend:
[1] = target: SHP-2 full length protein (Homo sapiens (Human), UniProt Q06124); test: SHP-2 biochemical DiFMUP pseudosubstrate-fluorogenic assay; details: 0.2 nM SHP-2, 1 μM IRS-1 activator peptide, 50 μM DiFMUP; read-out: SHP2 IC50
Method in brief: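 In-house recombinant full-length SHP-2 preincubated 90 min at room temperature with compounds (1:3 series, 10,000–0.005 nM), then DiFMUP substrate added at 50 μM final for 30 min more. Fluorescence normalised to DMSO wells (100%) and IC50 derived by curve fitting.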

NCI-H358 cells = test: NCI-H358 3D tumor spheroid growth inhibition; type: cell-based; details: Homo sapiens, NCI-H358, 168 h, 3D spheroids, 7 days, 3D CellTiter Glo; cellular IC50 designated EC50; read-out: H358 EC50
Method in brief: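 Cells seeded at 1000/well in ultra-low-attachment plates at 37 °C, 5% CO2 to form spheroids, then incubated a further 7 days with compounds. Viability by 3D CellTiter Glo luminescence; % inhibition versus DMSO wells, with normalized cellular IC50 reported as EC50.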

Sequence of SHP-2 full length protein (Q06124 whole entry): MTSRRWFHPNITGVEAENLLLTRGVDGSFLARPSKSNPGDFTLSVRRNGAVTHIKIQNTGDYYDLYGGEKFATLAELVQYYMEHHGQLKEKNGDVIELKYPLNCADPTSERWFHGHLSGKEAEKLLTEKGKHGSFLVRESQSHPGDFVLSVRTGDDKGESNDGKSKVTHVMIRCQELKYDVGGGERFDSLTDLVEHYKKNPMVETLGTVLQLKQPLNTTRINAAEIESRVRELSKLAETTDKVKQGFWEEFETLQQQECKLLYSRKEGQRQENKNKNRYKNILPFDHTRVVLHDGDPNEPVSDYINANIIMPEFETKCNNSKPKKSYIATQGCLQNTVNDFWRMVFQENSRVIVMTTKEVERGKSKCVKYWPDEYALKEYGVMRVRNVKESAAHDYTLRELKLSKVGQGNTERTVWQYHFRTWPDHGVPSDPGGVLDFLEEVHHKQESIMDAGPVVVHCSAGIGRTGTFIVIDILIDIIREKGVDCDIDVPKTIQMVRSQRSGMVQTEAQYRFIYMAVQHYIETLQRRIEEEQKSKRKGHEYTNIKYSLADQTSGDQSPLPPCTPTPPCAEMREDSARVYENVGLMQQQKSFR

SMILES	IC50 [1] [nM]	EC50 (NCI-H358 cells) [nM]
N[C@@H]1c2ccccc2CC12CCN(c1ncc(Sc3ccnc4sccc34)c3nccn13)CC2 [Example 138, (S)-1′-(8-(thieno[2,3-b]pyridin-4-ylthio)imidazo[1,2-c]pyrimidin-5-yl)-1,3-dihydrospiro[indene-2,4′-piperidin]-1-amine]	2.2	11
N[C@@H]1c2ccccc2CC12CCN(c1ncc(Sc3ccnc4ccsc34)c3nccn13)CC2 [Example 139, (S)-1′-(8-(thieno[3,2-b]pyridin-7-ylthio)imidazo[1,2-c]pyrimidin-5-yl)-1,3-dihydrospiro[indene-2,4′-piperidin]-1-amine]	1.7	8.9
N[C@@H]1c2ccccc2CC12CCN(c1ncc(Sc3cccc4cnsc34)c3nccn13)CC2 [Example 140, (S)-1′-(8-(benzo[d]isothiazol-7-ylthio)imidazo[1,2-c]pyrimidin-5-yl)-1,3-dihydrospiro[indene-2,4′-piperidin]-1-amine]	2.6	18
CSc1ccccc1Sc1cnc(N2CCC3(CC2)Cc2ccccc2[C@H]3N)n2ccnc12 [Example 141, (S)-1′-(8-((2-(methylthio)phenyl)thio)imidazo[1,2-c]pyrimidin-5-yl)-1,3-dihydrospiro[indene-2,4′-piperidin]-1-amine]	1.8	30
CCSc1ccccc1Sc1cnc(N2CCC3(CC2)Cc2ccccc2[C@H]3N)n2ccnc12 [Example 142, (S)-1′-(8-((2-(ethylthio)phenyl)thio)imidazo[1,2-c]pyrimidin-5-yl)-1,3-dihydrospiro[indene-2,4′-piperidin]-1-amine]	4	60
CC(C)Sc1ccccc1Sc1cnc(N2CCC3(CC2)Cc2ccccc2[C@H]3N)n2ccnc12 [Example 143, (S)-1′-(8-((2-(isopropylthio)phenyl)thio)imidazo[1,2-c]pyrimidin-5-yl)-1,3-dihydrospiro[indene-2,4′-piperidin]-1-amine]	11	260
N[C@@H]1c2ccccc2CC12CCN(c1ncc(Sc3ccnc4cccnc34)c3nccn13)CC2 [Example 144, (S)-1′-(8-((1,5-naphthyridin-4-yl)thio)imidazo[1,2-c]pyrimidin-5-yl)-1,3-dihydrospiro[indene-2,4′-piperidin]-1-amine]	3.6	4.4
N[C@@H]1c2ccccc2CC12CCN(c1ncc(Sc3ccnc4ccccc34)c3nccn13)CC2 [Example 145]	2.8	20
N[C@@H]1c2cccnc2CC12CCN(c1ncc(Sc3cccc(Cl)c3Cl)c3nccn13)CC2 [Example 146, (S)-1′-(8-((2,3-dichlorophenyl)thio)imidazo[1,2-c]pyrimidin-5-yl)-5,7-dihydrospiro[cyclopenta[b]pyridine-6,4′-piperidin]-5-amine]	1.7	15
Nc1nccc(Sc2cnc(N3CCC4(CC3)Cc3ncccc3[C@H]4N)n3ccnc23)c1Cl [Example 147, (S)-1′-(8-((2-amino-3-chloropyridin-4-yl)thio)imidazo[1,2-c]pyrimidin-5-yl)-5,7-dihydrospiro[cyclopenta[b]pyridine-6,4′-piperidin]-5-amine]	4.8	5.5
N[C@H]1c2cccnc2CC12CCN(c1ncc(Sc3cccc(Cl)c3Cl)c3nccn13)CC2 [Example 148, (R)-1′-(8-((2,3-dichlorophenyl)thio)imidazo[1,2-c]pyrimidin-5-yl)-5,7-dihydrospiro[cyclopenta[b]pyridine-6,4′-piperidin]-5-amine]	41	132
Nc1nccc(Sc2cnc(N3CCC4(CC3)Cc3ncccc3[C@@H]4N)n3ccnc23)c1Cl [Example 149, (R)-1′-(8-((2-amino-3-chloropyridin-4-yl)thio)imidazo[1,2-c]pyrimidin-5-yl)-5,7-dihydrospiro[cyclopenta[b]pyridine-6,4′-piperidin]-5-amine]	75	101
